Reference: patent US20130164249A1, “COMPOSITIONS AND METHODS FOR INHIBITING VIRAL AND BACTERIAL ACTIVITY” (priority 2007, published 2013)

Key:
[1] = SPR reference surface (nonfunctionalized dextran); format: binding; settings: pH 7.5, raw SPR data
Description: (§1) Two commercially available functionalized phenylboronic acids (Frontier Scientific, Logan Utah) were screened to compare the effect of electron withdrawing substituents (2,5-difluorophenylboronic acid, 1, FIG. 3a), versus a ortho-hydroxymethyl substituent (2-hydroxymethylphenylboronic acid, 2, FIG. 3a) prepared at 50 mM concentrations in 25 mM buffers at the appropriate pH (pH 5.5 acetate buffer, pH 7.5 phosphate buffer, and pH 9.5 carbonate buffer). HIV-1 CN54 gp120 with a molecular weight of 130 kDa was obtained from the NIH AIDS Research and Reference Reagent Program (Division of AIDS, NIH). CN54 gp120 was attached to a CM4 sensor chip using standard amine coupling chemistry with a density of 10,000 RU. Briefly, using HBS-P as the running buffer, the carboxymethyl dextran surface of a surface Plasmon resonance (SPR) chip (CM4 chip, Biacore) was activated with an injection of a 1:1 ratio of 0.4M 1-ethyl-3-(3-dimethylaminopropyl)carbodiimide hydrochloride (EDC)/0.1M N-hydroxysuccinimide (NHS). CN54 gp120 in 10 mM sodium acetate (pH 5.5) was then coupled to the surface. The remaining activated groups were then blocked by an injection of 1M ethanolamine (pH 8.5).

[2] = Solubility of ligand in buffer for SPR; format: physicochemical; settings: pH 5.5
Description: as §1

[3] = biological target: HIV-1 CN54 gp120; assay: Surface plasmon resonance screening of phenylboronic acid ligands with HIV gp120; format: binding; settings: SPR, 25° C., 1:1 interaction model, pH 5.5 / 7.5 / 9.5 buffers
Description: Two commercially available functionalized phenylboronic acids (Frontier Scientific, Logan Utah) were screened to compare the effect of electron withdrawing substituents (2,5-difluorophenylboronic acid, 1, FIG. 3a), versus a ortho-hydroxymethyl substituent (2-hydroxymethylphenylboronic acid, 2, FIG. 3a) prepared at 50 mM concentrations in 25 mM buffers at the appropriate pH (pH 5.5 acetate buffer, pH 7.5 phosphate buffer, and pH 9.5 carbonate buffer). HIV-1 CN54 gp120 with a molecular weight of 130 kDa was obtained from the NIH AIDS Research and Reference Reagent Program (Division of AIDS, NIH). CN54 gp120 was attached to a CM4 sensor chip using standard amine coupling chemistry with a density of 10,000 RU. […] Affinity for the gp120 functionalized surface was determined by comparing raw data to three reference cells: two of the unactivated CM4 surfaces, and an activated CM4 surface capped completely by ethanolamine. […] The association and dissociation phases were monitored for 1-3 min and 3-10 min respectively. Data was fitted to a 1:1 interaction model and the apparent affinity, KD, was determined using Scrubber II software. […]
Binding affinities in the presence of the seminal component fructose were also analyzed. […]

OB(O)c1cc(F)ccc1F [compound 1, 2,5-difluorophenylboronic acid]
binding to nonfunctionalized dextran surface [1]: no binding

OCc1ccccc1B(O)O [compound 2, 2-hydroxymethylphenylboronic acid]
solubility [2]: not soluble | apparent affinity, KD, to gp120 functionalized surface [3]: slightly higher affinity compared to the more acidic 1
